Test results: ChEMBL document CHEMBL1149957, “MALONIC ACID DERIVATIVES AS SIALYL LEWIS X MIMETICS” (Bioorg Med Chem Lett, 1997)

Experiments:
HL-60 [1] = assay: Tested for the inhibition of HL60 cell adhesion to recombinant E-selectin-IgG fusion protein measured by cell culture assay.; assay type: functional, cell-based; details: Homo sapiens
HL-60 [2] = assay: Tested for the inhibition of HL60 cell adhesion to recombinant P-selectin-IgG fusion protein measured by cell culture assay.; assay type: functional, cell-based; details: Homo sapiens
Rattus norvegicus [3] = assay: Tested for the inhibition of leukocyte adhesion in rat mesenteric venules in vivo at a dose of 10 mg/kg measured by intravital microscopy.; assay type: functional
Rattus norvegicus [4] = assay: Tested for the inhibition of leukocyte adhesion in rat mesenteric venules in vivo at a dose of 1 mg/kg measured by intravital microscopy.; assay type: functional
Rattus norvegicus [5] = assay: Tested for the inhibition of leukocyte adhesion in rat mesenteric venules in vivo at a dose of 3 mg/kg measured by intravital microscopy.; assay type: functional

## CC1OC(OC2CCCCC2OCCCCCCCC(C(=O)O)C(=O)O)C(O)C(O)C1O (configuration not stated)
HL-60 [1]
  IC50: > 5 mM
HL-60 [2]
  IC50: > 5 mM

## CC1OC(OC2CCCCC2OC(=O)NCCCC(C(=O)O)C(=O)O)C(O)C(O)C1O (configuration not stated)
HL-60 [1]
  IC50: 1 mM
HL-60 [2]
  IC50: 0.7 mM
Rattus norvegicus [3]
  inhibition in vivo at 10 mg/kg: 85%
Rattus norvegicus [4]
  inhibition in vivo at 1 mg/kg: 54%
Rattus norvegicus [5]
  inhibition in vivo at 3 mg/kg: 44%

## CC1OC(OC2CCCCC2OC(=O)NCCCCC(C(=O)O)C(=O)O)C(O)C(O)C1O (configuration not stated)
HL-60 [1]
  IC50: 4 mM
HL-60 [2]
  IC50: 4.5 mM

## CC1OC(OC2CCCCC2OCCCCCCCCC(C(=O)O)C(=O)O)C(O)C(O)C1O (configuration not stated)
HL-60 [1]
  IC50: > 5 mM
HL-60 [2]
  IC50: > 5 mM

## CC1OC(OC2CCCCC2OCCCC(C(=O)O)C(=O)O)C(O)C(O)C1O (configuration not stated)
HL-60 [1]
  IC50: > 5 mM
HL-60 [2]
  IC50: > 5 mM

## CC1OC(OC2CCCCC2OCCCCCCC(C(=O)O)C(=O)O)C(O)C(O)C1O (configuration not stated)
HL-60 [1]
  IC50: > 5 mM
HL-60 [2]
  IC50: > 5 mM

## CC1OC(OC2CCCCC2OCCCCCCCCCCC(C(=O)O)C(=O)O)C(O)C(O)C1O (configuration not stated)
HL-60 [1]
  IC50: > 5 mM
HL-60 [2]
  IC50: > 5 mM

## CC1OC(OC2C(OCCCCCC(C(=O)O)C(=O)O)CCOC2COCCCCc2ccccc2)C(O)C(O)C1O (configuration not stated)
HL-60 [1]
  IC50: 2.6 mM
HL-60 [2]
  IC50: 1.2 mM
Rattus norvegicus [5]
  inhibition in vivo at 3 mg/kg: 65%

## CC1OC(OC2CCCCC2OCCCCCC(C(=O)O)C(=O)O)C(O)C(O)C1O (configuration not stated)
HL-60 [1]
  IC50: > 5 mM
HL-60 [2]
  IC50: > 5 mM

## CC1OC(OC2CCCCC2OC(=O)NCCC(C(=O)O)C(=O)O)C(O)C(O)C1O (configuration not stated)
HL-60 [1]
  IC50: 3.4 mM
HL-60 [2]
  IC50: 3.5 mM
Rattus norvegicus [3]
  inhibition in vivo at 10 mg/kg: 58%

## CC1OC(OC2C(OCCCCC(C(=O)O)C(=O)O)CCOC2COCCCCc2ccccc2)C(O)C(O)C1O (configuration not stated)
HL-60 [1]
  IC50: 4.8 mM
HL-60 [2]
  IC50: 3.6 mM
Rattus norvegicus [5]
  inhibition in vivo at 3 mg/kg: 62%

## CC1OC(OC2CCCCC2OCCCCC(C(=O)O)C(=O)O)C(O)C(O)C1O (configuration not stated)
HL-60 [1]
  IC50: > 5 mM
HL-60 [2]
  IC50: > 5 mM

## CC(=O)N[C@H]1[C@H]([C@@H](O)[C@@H](O)CO)O[C@@](O[C@@H]2[C@H](O)[C@H](O[C@H]3[C@H](O[C@@H]4O[C@@H](C)[C@@H](O)[C@H](O)[C@@H]4O)[C@H](NC(C)=O)C(O)O[C@H]3CO)O[C@@H](CO)[C@@H]2O)(C(=O)O)C[C@H]1O (some centres not stated)
HL-60 [1]
  IC50: 1.5 mM
HL-60 [2]
  IC50: 3 mM
